Measurements from ChEMBL document CHEMBL1201862, “PubChem BioAssay data set” (2004).
Where a name gives a salt, the structure may show the parent alone. Blank lines part the entries; values can stand above or below the compound they belong to. The source made the active and inactive calls.

Key:
[1] = HEK293 cell cytotoxicity, dose response, cytotoxicity control, ATP luminescence, dry powder, set 3 (AID 743131); assay type: functional, cell-based
[2] = HepG2 cell cytotoxicity, dose response, cytotoxicity control, ATP luminescence, dry powder, set 2 (AID 743129); assay type: functional, cell-based
[3] = molecular target: Diphosphomevalonate decarboxylase (Streptococcus pneumoniae serotype 2 (strain D39 / NCTC 7466), UniProt Q9FD53); experiment: S. pneumoniae DPM-DC inhibition retest, confirmation, biochemical, cuvette format, coupled NADH fluorescence (AID 1028); assay type: functional
Diphosphomevalonate decarboxylase, sequence (Q9FD53 whole entry): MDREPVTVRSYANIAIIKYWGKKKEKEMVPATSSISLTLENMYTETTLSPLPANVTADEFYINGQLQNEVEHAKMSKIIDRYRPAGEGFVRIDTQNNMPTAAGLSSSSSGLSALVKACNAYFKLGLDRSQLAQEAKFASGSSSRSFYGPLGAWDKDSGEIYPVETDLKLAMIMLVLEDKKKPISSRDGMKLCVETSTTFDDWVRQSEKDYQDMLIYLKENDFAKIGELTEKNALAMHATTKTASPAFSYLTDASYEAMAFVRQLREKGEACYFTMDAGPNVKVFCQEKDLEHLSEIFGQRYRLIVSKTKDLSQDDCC

Prothrombin = Prothrombin (Homo sapiens, UniProt P00734); experiment: Thrombin 1536 HTS Dose Response Confirmation. [Related pubchem assays: 1046 (Thrombin 1536 HTS; hits were confirmed in this assay)]; assay type: functional
[4] = inhibitors of Vif binding to APOBEC3G peptide, primary screen, biochemical, TR-FRET, GST-Vif 1-94, biotin-A3G peptide, dose response retest (AID 1117319); assay type: functional;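 also: TR-FRET signal of purified GST-Vif binding a biotinylated A3G peptide; inhibitors lower the FRET signal by blocking Vif and A3G binding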
[5] = P. falciparum late gametocyte killing, dose response, luminescence (AID 1117278); assay type: functional, cell-based;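 also: gametocytes exposed to compound for 24 hours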
[6] = Jurkat T cell cytotoxicity, dose response, cytotoxicity control for P. falciparum gametocyte viability project, luminescence (AID 1117277); assay type: functional, cell-based;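 also: potency reflects loss of cellular ATP meaning fewer viable cells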
[7] = molecular target: Sphingosine 1-phosphate receptor 2 (Homo sapiens, UniProt O95136); experiment: Dose Response Cell Based Assay for Antagonists of the S1P2 Receptor. [Related pubchem assays: 856, 736 ]; assay type: functional
Sphingosine 1-phosphate receptor 2, sequence (O95136 whole entry): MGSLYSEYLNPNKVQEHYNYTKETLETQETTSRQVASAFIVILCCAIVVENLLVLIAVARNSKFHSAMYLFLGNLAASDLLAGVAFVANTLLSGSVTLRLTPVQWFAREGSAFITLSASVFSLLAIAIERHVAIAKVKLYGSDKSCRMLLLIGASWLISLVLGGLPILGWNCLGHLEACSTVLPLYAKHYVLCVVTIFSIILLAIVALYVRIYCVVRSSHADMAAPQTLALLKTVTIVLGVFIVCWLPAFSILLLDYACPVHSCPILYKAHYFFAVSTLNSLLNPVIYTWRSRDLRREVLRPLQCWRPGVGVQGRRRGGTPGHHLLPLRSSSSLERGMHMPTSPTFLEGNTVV

Protein skinhead-1 = molecular target: T1, Protein skinhead-1 (Caenorhabditis elegans, UniProt P34707); assay type: functional
T1 sequence (P34707 whole entry): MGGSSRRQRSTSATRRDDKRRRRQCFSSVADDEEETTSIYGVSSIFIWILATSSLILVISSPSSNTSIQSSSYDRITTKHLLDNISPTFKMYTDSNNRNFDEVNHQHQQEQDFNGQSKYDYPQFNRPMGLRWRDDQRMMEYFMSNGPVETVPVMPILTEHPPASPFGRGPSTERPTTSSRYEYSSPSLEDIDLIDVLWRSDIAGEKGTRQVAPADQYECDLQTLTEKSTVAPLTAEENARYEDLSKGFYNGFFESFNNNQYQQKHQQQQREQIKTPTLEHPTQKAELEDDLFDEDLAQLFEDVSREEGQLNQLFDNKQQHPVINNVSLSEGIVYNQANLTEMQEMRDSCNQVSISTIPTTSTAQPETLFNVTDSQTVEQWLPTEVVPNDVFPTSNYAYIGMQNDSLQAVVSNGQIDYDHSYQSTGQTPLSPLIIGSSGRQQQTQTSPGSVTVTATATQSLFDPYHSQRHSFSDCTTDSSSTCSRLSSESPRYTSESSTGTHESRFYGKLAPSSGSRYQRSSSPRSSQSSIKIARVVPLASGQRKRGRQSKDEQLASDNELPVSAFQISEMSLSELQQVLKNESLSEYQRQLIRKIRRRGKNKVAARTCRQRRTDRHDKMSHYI

[8] = molecular target: T2, DNA repair protein RAD52 homolog (Homo sapiens, UniProt P43351); assay type: functional, biochemical
T2 sequence (P43351 whole entry): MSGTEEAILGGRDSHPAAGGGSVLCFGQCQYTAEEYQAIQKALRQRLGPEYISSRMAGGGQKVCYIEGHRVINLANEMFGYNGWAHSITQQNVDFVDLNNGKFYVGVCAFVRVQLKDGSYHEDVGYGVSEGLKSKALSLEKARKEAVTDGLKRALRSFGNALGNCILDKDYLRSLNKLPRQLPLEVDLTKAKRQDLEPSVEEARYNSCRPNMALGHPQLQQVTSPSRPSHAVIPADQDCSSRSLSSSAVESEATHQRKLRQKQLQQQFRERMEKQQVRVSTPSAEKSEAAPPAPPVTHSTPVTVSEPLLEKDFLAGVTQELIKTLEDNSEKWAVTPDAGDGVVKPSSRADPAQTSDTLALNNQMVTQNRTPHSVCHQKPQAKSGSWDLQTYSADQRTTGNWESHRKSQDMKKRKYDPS

[9] = Dose-response inhibition of insulin secretion in a rat insulinoma line at 5 mM glucose (AID 1117331); assay type: functional, cell-based; conditions: INS-1E
cells = assay type: functional, cell-based; conditions: INS-1E
[10] = cytotoxicity in A549 cells, dose response, cytotoxicity control, cell-based, CellTiter-Glo luminescence, cherry-pick (AID 743484); assay type: functional
[11] = molecular target: G-protein coupled receptor 183 (Homo sapiens, UniProt P32249); experiment: SAR confirmation of small molecule antagonists of the EBI2 receptor via a luminescent beta-arrestin assa.; assay type: functional
G-protein coupled receptor 183, sequence (P32249 whole entry): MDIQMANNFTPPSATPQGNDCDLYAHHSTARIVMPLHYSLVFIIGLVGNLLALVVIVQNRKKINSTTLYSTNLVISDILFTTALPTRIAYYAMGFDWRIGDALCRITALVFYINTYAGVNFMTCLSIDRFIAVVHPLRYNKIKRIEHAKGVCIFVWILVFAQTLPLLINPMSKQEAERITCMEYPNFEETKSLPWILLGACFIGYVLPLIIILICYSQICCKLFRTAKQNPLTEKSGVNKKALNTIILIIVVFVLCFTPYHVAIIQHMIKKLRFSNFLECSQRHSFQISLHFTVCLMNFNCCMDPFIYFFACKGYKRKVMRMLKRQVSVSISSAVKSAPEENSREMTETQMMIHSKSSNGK

[12] = molecular target: T3, Rac GTPase-activating protein 1 (Homo sapiens, UniProt Q9H0H5); experiment: MgcRacGAP GTPase-activating activity inhibitors, confirmation, biochemical, ADP Hunter fluorescence, primary and confirmatory (AID 624330); assay type: functional
T3 sequence (Q9H0H5 whole entry): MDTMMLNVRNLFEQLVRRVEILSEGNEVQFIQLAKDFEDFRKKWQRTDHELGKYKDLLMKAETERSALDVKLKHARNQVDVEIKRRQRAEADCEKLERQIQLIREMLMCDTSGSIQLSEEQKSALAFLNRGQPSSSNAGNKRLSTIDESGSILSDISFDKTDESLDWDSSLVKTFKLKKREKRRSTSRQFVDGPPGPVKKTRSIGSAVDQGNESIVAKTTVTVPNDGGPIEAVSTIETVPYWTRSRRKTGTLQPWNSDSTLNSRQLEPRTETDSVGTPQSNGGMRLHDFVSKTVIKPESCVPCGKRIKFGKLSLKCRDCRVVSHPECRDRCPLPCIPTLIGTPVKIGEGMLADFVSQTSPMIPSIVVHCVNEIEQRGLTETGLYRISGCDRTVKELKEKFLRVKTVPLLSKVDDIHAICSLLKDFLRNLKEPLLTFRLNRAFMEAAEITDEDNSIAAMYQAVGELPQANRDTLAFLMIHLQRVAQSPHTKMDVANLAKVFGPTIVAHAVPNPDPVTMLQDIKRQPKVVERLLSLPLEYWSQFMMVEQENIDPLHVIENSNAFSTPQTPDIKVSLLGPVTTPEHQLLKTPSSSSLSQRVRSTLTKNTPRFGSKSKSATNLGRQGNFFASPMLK

Fibrinogen beta chain [13] = molecular target: T4, Fibrinogen beta chain (Homo sapiens, UniProt P02675); experiment: Fluorescence polarization-based biochemical high throughput dose response assay to identify inhibitors that disrupt the binding of a cyclic peptide (Tn6) to the fibrin proteolytic product D-Dimer and fragment E complex [DD(E )].
T4 sequence (P02675 whole entry, the tested form may be a part): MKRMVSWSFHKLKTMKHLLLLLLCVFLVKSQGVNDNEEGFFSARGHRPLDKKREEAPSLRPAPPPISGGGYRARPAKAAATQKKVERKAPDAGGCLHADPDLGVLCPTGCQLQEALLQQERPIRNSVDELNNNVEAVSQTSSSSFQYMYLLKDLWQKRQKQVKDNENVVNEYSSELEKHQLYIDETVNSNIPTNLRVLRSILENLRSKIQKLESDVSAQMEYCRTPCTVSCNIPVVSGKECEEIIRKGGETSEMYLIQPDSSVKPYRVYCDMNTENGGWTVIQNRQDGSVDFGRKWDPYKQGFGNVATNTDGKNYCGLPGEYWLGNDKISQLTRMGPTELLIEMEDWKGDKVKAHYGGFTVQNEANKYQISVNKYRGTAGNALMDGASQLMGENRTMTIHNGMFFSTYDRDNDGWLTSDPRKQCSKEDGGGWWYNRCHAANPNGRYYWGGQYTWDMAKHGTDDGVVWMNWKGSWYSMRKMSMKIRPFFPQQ

Fibrinogen beta chain [14] = molecular target: T4, Fibrinogen beta chain; experiment: Fluorescence polarization-based biochemical high throughput dose response assay to identify inhibitors that disrupt the binding of a cyclic peptide (Tn7) to the fibrin proteolytic product D-Dimer and fragment E complex [DD(E )].

SMILES: CCOC(=O)c1c(NC(=O)CNCCN(C)C)sc(C)c1-c1ccccc1
AC50 [1]: 7.22 µM (active) | AC50 [2]: > 52 µM (inactive)

SMILES: CCCN(CCC)C(=O)c1cccc(-n2sc3ccccc3c2=O)c1
IC50 [3]: 18.1 µM (active)

IC50 (Prothrombin): > 50 µM (not active) | IC50 [4]: > 100 µM (active)
SMILES: COc1cc(OC)cc(C(=O)NNC(=O)c2ccccc2Br)c1

SMILES: Cc1ccc(NC(=O)Cn2cccc2)c(C)c1
IC50 [5]: > 109 µM (inactive) | IC50 [6]: > 83.4 µM (inactive)

IC50 [7]: 4.5 µM (active) | IC50 (Protein skinhead-1): > 100 µM (inactive)
SMILES: Cc1ccc(NC2=Nc3ccccc3N3C2=Nc2c(c(C)nn2-c2ccccc2)C3c2ccc(O)c(O)c2)cc1 (configuration not stated)

SMILES: CCC(=O)c1ccc2c(c1)N(CCCN(C)C)c1ccccc1S2 [PROPIONYLPROMAZINE HYDROCHLORIDE]
AC50 [8]: 31.4 µM (active) | IC50 [9]: 10.7 µM (inactive) | IC50 (cells): > 33.3 µM (inactive)

SMILES: CC(CNc1ccc(Cl)cc1)(CNc1ccc(Cl)cc1)[N+](=O)[O-]
AC50 [10]: > 52 µM (inactive)

IC50 [11]: 19.6 nM (active)
SMILES: O=C(/C=C/c1ccc(F)cc1)N1CCN(S(=O)(=O)c2cccc(F)c2)CC1

IC50 [12]: 9.5 µM (active) | IC50 (Fibrinogen beta chain [13]): > 83.3 µM (inactive) | IC50 (Fibrinogen beta chain [14]): > 83.3 µM (inactive)
SMILES: CCC/C(=N\c1ccc(N)cc1)C1=C(O)C(C(=O)OC)C(C)(C)CC1=O (configuration not stated)
